Data from ChEMBL document CHEMBL6120983, “Synthesis and Structure-Activity Relationship of Covalent Inhibitors of SARS-CoV-2 Papain-Like Protease with Antiviral Potency” (Bioorg Med Chem Lett, 2025).

Assays:
[1] = Plasma protein binding in human; type: ADME, cell-free; details: read-out: PPB (converted)
[2] = AUC (0 to last) in dog at 20 mg/kg, po; type: ADME, organism-based, Canis lupus familiaris; details: in vivo
[3] = Cmax in dog at 20 mg/kg, po; type: ADME, organism-based, Canis lupus familiaris; details: in vivo
[4] = Tlast in dog at 20 mg/kg, po; type: ADME, organism-based, Canis lupus familiaris; details: in vivo
[5] = Half life in dog at 2 mg/kg, iv; type: ADME, organism-based, Canis lupus familiaris; details: in vivo
[6] = AUC (0 to last) in dog at 2 mg/kg, iv; type: ADME, organism-based, Canis lupus familiaris; details: in vivo
[7] = Cmax in dog at 2 mg/kg, iv; type: ADME, organism-based, Canis lupus familiaris; details: in vivo
[8] = Lipophilicity, logD of compound; type: physicochemical; details: octanol/water
[9] = Clearance in dog at 2 mg/kg, iv; type: ADME, organism-based, Canis lupus familiaris; details: in vivo
[10] = Clearance in dog at 20 mg/kg, po; type: ADME, organism-based, Canis lupus familiaris; details: in vivo
[11] = Oral bioavailability in dog at 20 mg/kg; type: ADME, organism-based, Canis lupus familiaris; details: in vivo
[12] = MRT (0 to last) in dog at 2 mg/kg, iv; type: ADME, organism-based, Canis lupus familiaris; details: in vivo
[13] = MRT (0 to last) in dog at 20 mg/kg, po; type: ADME, organism-based, Canis lupus familiaris; details: in vivo
[14] = Volume of distribution in dog at 2 mg/kg, iv; type: ADME, organism-based, Canis lupus familiaris; details: in vivo
[15] = system: SARS-CoV-2; assay: Antiviral activity against SARS CoV-2 infected in human HeLa-ACE2 assessed as reduction in viral replication incubated for 24 hrs; type: functional; details: Severe acute respiratory syndrome coronavirus 2, HeLa-ACE2
[16] = Half life in dog at 20 mg/kg, po; type: ADME, organism-based, Canis lupus familiaris; details: in vivo
[17] = Intrinsic clearance in mouse liver microsomes; type: ADME, Microsome; details: read-out: CLH
[18] = Tlast in dog at 2 mg/kg, iv; type: ADME, organism-based, Canis lupus familiaris; details: in vivo
[19] = Cytotoxicity against human A549-ACE2 cells assessed as reduction in cell viability; type: toxicity, cell-based
[20] = target: Replicase polyprotein 1ab (Severe acute respiratory syndrome coronavirus 2, UniProt P0DTD1); assay: Inhibition of SARS-CoV-2 papain-like protease using Z-Arg-Leu-Arg-Gly-Gly-AMC as substrate incubated for 15 mins
[21] = Ratio of CC50 for cytotoxicity against human A549-ACE2 cells assessed as reduction in cell viability to EC90 for antiviral activity against SARS CoV-2 infected in human HeLa-ACE2 assessed as reduction in viral replication; type: toxicity, cell-based

Structure (SMILES)	EC90 [15] [µM]	CC50 ([19]; a549-ace2) [µM]	IC50 [20] [µM]	CC50 ([19]; A549-ACE2 cells) [µM]	also measured
COC(=O)/C=C/C(=O)NNC(=O)CCc1ccccc1C(=O)N[C@H](C)c1cccc2ccccc12	0.49	29.9	–	–	fraction unbound [1]: 0.049; AUC(0-t) [2]: 91 ng·h/mL; Cmax [3]: 84 ng/mL; Tlast [4]: 8 h; half-life [5]: 6 min; AUC(0-t) [6]: 315 ng·h/mL; Cmax [7]: 2840 ng/mL; logD [8]: 3; clearance [9]: 107 mL/min/kg; CL/F [10]: 3710 mL/min/kg; bioavailability [11]: 2.9%; MRT last [12]: 6.84 min; MRT last [13]: 97.2 min; Vd [14]: 0.742 L/kg; half-life [16]: 72.6 min; microsomal CLint [17]: 144 µL/min/mg; Tlast [18]: 1 h
C[C@@H](NC(=O)c1ccccc1CCC(=O)NNC(=O)CC#N)c1cccc2ccccc12	> 9.6	–	9.5	> 99	–
C[C@@H](NC(=O)c1ccccc1CCC(=O)NNC(=O)/C=C/C(=O)OCc1nccs1)c1cccc2ccccc12	9.23	16	0.34	–	–
COC(=O)/C=C\C(=O)NNC(=O)CCc1ccccc1C(=O)N[C@H](C)c1cccc2ccccc12	0.71	34.6	–	–	–
C[C@@H](NC(=O)c1ccccc1CCC(=O)NNC(=O)/C=C/C(=O)OCC1CCCC1)c1cccc2ccccc12	0.31	69.5	1.62	–	–
COC(=O)/C=C/C(=O)NNC(=O)CCc1ccccc1C(=O)N[C@H](C)c1cccc(-c2cn[nH]c2)c1	3.58	–	0.21	> 99	–
C[C@@H](NC(=O)c1ccccc1CCC(=O)NNC(=O)/C=C/C(=O)OCCC(F)(F)F)c1cccc2ccccc12	1.26	61.9	0.25	–	–
C[C@@H](NC(=O)c1ccccc1CCC(=O)NNC(=O)/C=C/C(=O)OC1CCCCC1)c1cccc2ccccc12	0.41	–	0.96	> 99	–
CCOC(=O)/C=C/C(=O)NNC(=O)CCc1ccccc1C(=O)N[C@H](C)c1cccc2ccccc12	0.31	44.7	0.19	–	–
C[C@@H](NC(=O)c1ccccc1CCC(=O)NNC(=O)/C=C/C(=O)N(C)C)c1cccc2ccccc12	> 9.6	–	18.5	> 99	–
C=C(CC(=O)NNC(=O)CCc1ccccc1C(=O)N[C@H](C)c1cccc2ccccc12)C(=O)OC	8.3	6.1	17.9	–	–
COC(=O)/C=C/C(=O)NNC(=O)CCc1ccccc1C(=O)N[C@H](C)c1cccc(C2=CCOCC2)c1	1.24	48.4	0.29	–	–
COC(=O)/C=C/CNC(=O)CCc1ccccc1C(=O)N[C@H](C)c1cccc2ccccc12	> 9.6	87.9	26.2	–	–
C[C@@H](NC(=O)c1ccccc1CCC(=O)NNC(=O)C(F)Cl)c1cccc2ccccc12 (stereo not given in full)	> 9.6	–	15.8	> 99	–
C[C@@H](NC(=O)c1ccccc1CCC(=O)NNC(=O)/C=C/C(=O)OCc1ncccn1)c1cccc2ccccc12	3.03	30.1	0.35	–	–
CC(=O)C(=O)NNC(=O)CCc1ccccc1C(=O)N[C@H](C)c1cccc2ccccc12	> 9.6	–	37.3	> 99	–
CCCCOC(=O)/C=C/C(=O)NNC(=O)CCc1ccccc1C(=O)N[C@H](C)c1cccc2ccccc12	0.18	–	0.24	> 99	–

Structure (SMILES)	EC90 [15] [µM]	CC50 ([19]; a549-ace2) [µM]	IC50 [20] [µM]	CC50 ([19]; A549-ACE2 cells) [µM]	also measured
CC#CC(=O)NNC(=O)CCc1ccccc1C(=O)N[C@H](C)c1cccc2ccccc12	> 9.6	68.9	11.3	–	–
C[C@@H](NC(=O)c1ccccc1CCC(=O)NNC(=O)/C=C/C(=O)OC(C)(C)C)c1cccc2ccccc12	1.75	64	0.24	–	–
C[C@@H](NC(=O)c1ccccc1CCC(=O)NNC(=O)/C=C/C(=O)OCc1ccccc1)c1cccc2ccccc12	0.78	98.9	0.52	–	–
CC(=O)/C=C/C(=O)NNC(=O)CCc1ccccc1C(=O)N[C@H](C)c1cccc2ccccc12	12.9	–	27.2	> 99	–
C[C@@H](NC(=O)c1ccccc1CCC(=O)NNC(=O)/C=C/C(=O)O)c1cccc2ccccc12	> 9.6	–	2.6	> 99	–
CNC(=O)/C=C/C(=O)NNC(=O)CCc1ccccc1C(=O)N[C@H](C)c1cccc2ccccc12	> 9.6	–	16.2	> 99	–
C[C@@H](NC(=O)c1ccccc1CCC(=O)NNC(=O)/C=C/C#N)c1cccc2ccccc12	15.2	13.1	1.9	–	–
COc1ccc(COC(=O)/C=C/C(=O)NNC(=O)CCc2ccccc2C(=O)N[C@H](C)c2cccc3ccccc23)cc1OC	0.26	–	1.01	> 99	–
C[C@@H](NC(=O)c1ccccc1CCC(=O)NNC(=O)COC(F)(F)F)c1cccc2ccccc12	> 9.6	–	52.9	> 99	–
C[C@@H](NC(=O)c1ccccc1CCC(=O)NNC(=O)/C=C/C(=O)OC1CCC1)c1cccc2ccccc12	0.27	64.8	0.33	–	–
CCOC(=O)/C=C/C(=O)NNC(=O)CCc1ccccc1C(=O)N[C@H](C)c1cccc(-c2cccs2)c1	0.21	–	0.14	–	fraction unbound [1]: 0.014; AUC(0-t) [2]: 62 ng·h/mL; Cmax [3]: 20 ng/mL; Tlast [4]: 8 h; half-life [5]: 6.48 min; AUC(0-t) [6]: 362 ng·h/mL; Cmax [7]: 3220 ng/mL; clearance [9]: 95.1 mL/min/kg; selectivity ratio [21]: 56.7; CL/F [10]: 5090 mL/min/kg; bioavailability [11]: 1.9%; MRT last [12]: 7.02 min; MRT last [13]: 176 min; Vd [14]: 0.681 L/kg; half-life [16]: 157 min; microsomal CLint [17]: 618 µL/min/mg; Tlast [18]: 1 h
COC(=O)/C=C/C(=O)NNC(=O)CCc1ccccc1C(=O)N[C@H](C)c1cccc(-c2cc3ccccc3o2)c1	0.12	59	0.25	–	–
CC(C)OC(=O)/C=C/C(=O)NNC(=O)CCc1ccccc1C(=O)N[C@H](C)c1cccc2ccccc12	0.56	59.3	0.24	–	–
COC(=O)/C=C/C(=O)NNC(=O)CCc1ccccc1C(=O)N[C@H](C)c1cccc(-c2cncnc2)c1	9.55	–	0.35	> 99	–
C[C@@H](NC(=O)c1ccccc1CCC(=O)NNC(=O)/C=C/C(=O)OCc1ccc2ccccc2n1)c1cccc2ccccc12	1.14	13.6	0.45	–	–
C[C@@H](NC(=O)c1ccccc1CCC(=O)NNC(=O)/C=C/c1ncco1)c1cccc2ccccc12	> 9.6	–	44.5	> 99	–
